Legend:
[1] = test system: soybean rust; assay: Field trial, soybean rust; assay type: in vivo, Phakopsora pacchyrhizi Sydow; details: sprayed 2 times
Protocol: III. The Soybean Rust Test Method:
Spray method: Stein and leaf spraying (Applicator: Xinkangda lithium battery electric sprayer).
Test crops: soybean (cultivars: Glycine max(L) Merr)
The test was carried out in Shenyang, the test field was loam with rich organic matters and normal management of fertilizer and water, and no other pesticide was applied during the test.
The arrangement of the test plot was random block permutation; the area of the test plot: 25 m^2; repeat times: 3 times; spray time and frequency: 2 times on Aug. 11, 2018 and Aug. 21, 2018 respectively. Spray dosage: each treatment was repeated 3 times, the total water consumption was 8 L. No other pesticide was applied during the test. […] 15-20 days after the second spray treatment, the control effect was investigated.
The incidence of disease spots in each plot was investigated by diagonal selecting 5 samples/plot and 20 plants/samples, 10 leaves/plant was surveyed.
The grading standard of crop disease was as follows:
Grade 0: no leaf-spot area;
Grade 1: the ratio of leaf-spot area to leaf area is less than 5%;
Grade 3: the ratio of leaf-spot area to leaf area is between 6-25%;
Grade 5: the ratio of leaf-spot area to leaf area is between 26-50%;
Grade 7: the ratio of leaf-spot area to leaf area is between 51-75%;
Grade 9: the ratio of leaf-spot area to leaf area is between 76-100%;
According to the relevant content of the “Guidelines for the field efficacy trials of pesticides of the People's Republic of China (PRC)”, the disease index was calculated according to the grading standard, and the control effect in a unit of % was calculated based on the disease index, and the test data of significance analysis was performed by using DPS evaluation system (DMRT).

[2] = test system: cucumber powdery mildew; assay: Greenhouse pot test, cucumber powdery mildew; assay type: in vivo; details: Cucumis sativus, 192 h, greenhouse pot, read-out: Control effect (%) Cucumber powdery mildew
Protocol: (§1) Test method: each of the test compounds in Table 1 was dispensed to 5 wt % emulsifiable concentrate (hereinafter referred to as 5% EC). The greenhouse pot test was used in each experiment, and the effective concentrations of each compound were illustrated in Table 1.
Cucumber powdery mildew: cucumber seedling in a true leaf period with uniform growth was selected, and dried in the shade for 24 h after spray treatment. Fresh cucumber powdery mildew spores on the cucumber leaves were collected and washed, and filtered through a double gauze to prepare a spores suspension with concentration of about 100,000/mL, then spray inoculation was applied. The test materials inoculated were moved into a greenhouse (lighting 21-23° C.), after 8 days, the grading investigation was carried out according to the disease incidence condition of blank control, and the control effect in a unit of % was calculated according to disease index.
(§2) The investigation method: “Guidelines for the field efficacy trials of pesticides” was adopted as the grading standard, and the control effect in a unit of % was calculated based on the disease index. Disease index=Σ(number of diseased leaves at each grade×relative grade value)×100/(total number of leaves×9); Control effect (%)=(disease index of control−disease index of treated)×100/disease index of control;
(§3) The compounds provided by the present disclosure and some control compounds were tested by the same methods in the Test example 1, except that the effective concentrations of the compounds in this Test example are shown in Table 2.

[3] = test system: wheat powdery mildew (Erysiphe graminis); assay: Greenhouse pot test, wheat powdery mildew; assay type: in vivo; details: Blumeria graminis, 168 h, read-out: Control effect (%) Wheat powdery mildew
Excerpt: as §1
Wheat powdery mildew: two-leaf stage potted wheat seedling with uniform growth was selected and made foliar spray treatment with 5% EC, the blank control sprayed with clean water was additionally arranged, three replicates were carried out. After 24 h, the leaves of the host plants were inoculated by shake-down method with sporangial suspensions of the fungi wheat powdery mildew (Erysiphe graminis), the plants were stored in a greenhouse (25±1° C.). After 7 days, the screening results were investigated according to the disease incidence condition of blank control.
as §2, §3

[4] = test system: rice sheath blight fungi (Rhizoctonia solami); assay: Greenhouse pot test, rice sheath blight; assay type: in vivo
Protocol: as §3
In addition, the test method for rice sheath blight as following steps:
The potted rice seedling with uniform growth was selected, and dried in the shade for 24 h after spray treatment, then inoculated 3 blocks of 0.25 cm^2 rice sheath blight fungi (Rhizoctonia solami) at the base of seedling by clamp inoculation bacterium block method. The test materials inoculated were moved into greenhouse (temperature: lighting 28° C., dark 25° C., relative humidity 95%), after 7 days, investigate 5 leaves of per block treatment, the grading investigation was carried out according to the disease incidence condition of sheaths and leaves of rice, “Guidelines for the field efficacy trials of pesticides” was adopted as the grading standard, the disease index was calculated according to the grading standard, and the control effect in a unit of % was calculated according to disease index.

[5] = test system: soybean rust (Phakopsora pacchyrhizi Sydow); assay: Greenhouse pot test, soybean rust; assay type: in vivo; details: Glycine max, 168 h, read-out: Control effect (%) Soybean rust
Protocol: as §1
Soybean rust: two-leaf stage potted soybean seedling with uniform growth was selected and made foliar spray treatment with 5% EC, the blank control sprayed with clean water was additionally arranged, three replicates were carried out. After 24 h, the leaves of the host plants were inoculated with sporangial suspensions of the fungi soybean rust (Phakopsora pacchyrhizi Sydow), the plants were stored in humidity chamber (temperature 20-25° C., relative humidity>95%) and then transferred to greenhouse (25±1° C.) 8-16 h after infection. After 7 days, the screening results were investigated according to the disease incidence condition of blank control.
as §2, §3

Cn1cc(C(=O)Nc2ccccc2Oc2ccc(C(F)(F)F)cc2C(F)(F)F)c(C(F)F)n1 [Compound 1]
Control effect (%) ([1]; dosage 50 mg/L): 92.67% | Control effect (%) ([1]; dosage 75 mg/L): 94.56% | Control effect (%) ([1]; dosage 100 mg/L): 97.69% | pest or weed control at 1 µg/mL ([2]; 1 mg/L): 90% | pest or weed control at 1.5625 µg/mL ([2]; 1.5625 mg/L): 95% | pest or weed control at 2.5 µg/mL ([2]; 2.5 mg/L): 98% | pest or weed control at 3.125 µg/mL ([2]; 3.1250 mg/L): 100% | pest or weed control at 6.25 µg/mL ([2]; 6.25 mg/L): 100% | pest or weed control at 10 µg/mL ([2]; 10 mg/L): 100% | pest or weed control at 25 µg/mL ([2]; 25 mg/L): 100% | pest or weed control at 100 µg/mL ([2]; 100 mg/L): 100% | pest or weed control at 1.5625 µg/mL ([3]; 1.5625 mg/L): 85% | pest or weed control at 2.5 µg/mL ([3]; 2.5 mg/L): 100% | pest or weed control at 3.125 µg/mL ([3]; 3.1250 mg/L): 100% | pest or weed control at 6.25 µg/mL ([3]; 6.25 mg/L): 100% | pest or weed control at 10 µg/mL ([3]; 10 mg/L): 100% | pest or weed control at 25 µg/mL ([3]; 25 mg/L): 100% | pest or weed control at 100 µg/mL ([3]; 100 mg/L): 100% | Control effect (%) Rice sheath blight ([4]; 0.625 mg/L): 75% | Control effect (%) Rice sheath blight ([4]; 1 mg/L): 80% | Control effect (%) Rice sheath blight ([4]; 1.5625 mg/L): 85% | Control effect (%) Rice sheath blight ([4]; 2.5 mg/L): 90% | Control effect (%) Rice sheath blight ([4]; 3.1250 mg/L): 100% | Control effect (%) Rice sheath blight ([4]; 10 mg/L): 100% | pest or weed control at 0.5 µg/mL ([5]; 0.5 mg/L): 100% | pest or weed control at 1 µg/mL ([5]; 1 mg/L): 100% | pest or weed control at 1.5625 µg/mL ([5]; 1.5625 mg/L): 100% | pest or weed control at 2.5 µg/mL ([5]; 2.5 mg/L): 100% | pest or weed control at 3.125 µg/mL ([5]; 3.1250 mg/L): 100% | pest or weed control at 6.25 µg/mL ([5]; 6.25 mg/L): 100% | pest or weed control at 10 µg/mL ([5]; 10 mg/L): 100% | pest or weed control at 25 µg/mL ([5]; 25 mg/L): 100% | pest or weed control at 100 µg/mL ([5]; 100 mg/L): 100%
